Measured values reported in article PMC10894853, “Distribution and elimination kinetics of midazolam and metabolites after post-resuscitation care: a prospective observational study” (Scientific Reports, 2024).

How the values were obtained:
[1] = Non-compartmental pharmacokinetics of midazolam and metabolites in plasma after discontinuation of MDZ infusion (LC-MS/MS); format: in vivo, human; settings: for AUClast / AUCinf: relative concentration; for MRT inf: read-out: MRTinf (mean residence time); for MRT last: read-out: MRTlast (mean residence time)
Experimental: The PK parameters were obtained using a non-compartmental method with Phoenix WinNonlin (version 8.3.5; Certara, USA). […] The AUC from time 0 to infinity (AUCinf) was calculated as AUClast + Clast/λz, where Clast is the last measurable concentration and λz is the elimination rate constant. The mean residence time was calculated as […]. The estimated t1/2 was calculated from λz based on a previously reported equation[12].
All samples were immediately frozen and stored at –70 ℃ after centrifugation with 3,000 rpm for 10 min and then sent to the Nutrition Food Microbiology Laboratory at Chungnam National University (http://nfml.kr/) to determine the concentration of midazolam and its metabolites using liquid chromatography with tandem mass spectrometry analysis.
The sample preparation method was performed as previously described with some modifications. A 20 µL of sample was mixed with 180 µL of 80% methanol, followed by protein precipitation at 4 °C for 30 min. Subsequently, the supernatant was harvested and added to 1800 µL of distilled water. The pre-treated samples were loaded onto an Oasis HLB Vac RC cartridge (30 mg, 20 cc, Waters) that had been preconditioned with 6 mL of methanol and 6 mL of distilled water. The cartridge was washed with 6 mL distilled water and sequentially eluted with methanol (4 mL). The eluted samples were dried using an evaporator and resuspended with 0.2 mL of methanol for analysis.

[2] = Awakening time and estimated midazolam concentration at awakening (simple linear regression); format: in vivo, human
Experimental: The primary outcome of this study was the distribution and elimination of MDZ and its metabolites over 24 h following the discontinuation of MDZ infusion after targeted temperature management (33 or 36℃). The secondary outcome was the association between the PK parameters and awakening time in a subgroup of patients who experienced neurological recovery.
We investigated the PK parameters for all compounds in each individual. […] Among these four patients, the mean of the estimated MDZ concentration was 16.8 ng/mL.
Figure 4 Simple linear regression analysis between the absolute concentration of midazolam and awakening time in the subgroup of awakened patients after post-resuscitation care (n = 7). […] The regression line (grid line) is followed the regression equation: Y = − 4.506 × X + 105.5.

[3] = Distribution (proportion of total relative concentration) of midazolam and metabolites in plasma after discontinuation of MDZ infusion; settings: range over sampling times 0 to 24 h
Experimental: Serum samples for analyzing the plasma concentration of MDZ and its metabolites were obtained immediately (baseline) and at 4, 8, 12, and 24 h after the discontinuation of MDZ infusion.
The distribution of each compound was assessed by calculating its relative concentration as a ratio to the total sum of relative concentrations at each sampling time.

[4] = cited from earlier work
[5] = after discontinuation of MDZ infusion, mean ± SD
[6] = plasma, 0 to 24 h after discontinuation of MDZ infusion, arithmetic mean ± SD
[7] = plasma, time 0 to infinity after discontinuation of MDZ infusion, mean ± SD
[8] = human, plasma, intravenous, after discontinuation of MDZ infusion, mean ± SD

Row | Compound | MRTinf (mean residence time) [1, 5] [h] | MRTlast (mean residence time) [1, 5] [h] | t1/2 (elimination half-life) [1, 5] [h] | AUClast [1, 6] | AUCinf [1, 7] | other results
1 | Cc1ncc2n1-c1ccc(Cl)cc1C(c1ccccc1F)=NC2O[C@@H]1O[C@H](C(=O)O)[C@@H](O)[C@H](O)[C@H]1O (stereo partly drawn) [4-OH-MDZ-Glu, 4-hydroxymidazolam glucuronide] | 7.9 ± 1.4 | 6.4 ± 2.2 | 5.4 ± 0.7 | 29.8 ± 24.4 h*ppm | 33.3 ± 34.3 h*ppm | –
2 | Cc1ncc2n1-c1ccc(Cl)cc1C(c1ccccc1F)=NC2 [MDZ, midazolam] | – | – | 6.2 ± 3.9 | – | – | AUC(0-t) ([1]; human, intravenous, plasma, 0 to 24 h after discontinuation of MDZ infusion, absolute concentration, arithmetic mean ± SD): 1770 ± 2740 ng·h/mL; AUC(0-inf) ([1]; human, intravenous, plasma, time 0 to infinity after discontinuation of MDZ infusion, absolute concentration, mean ± SD): 2110 ± 3050 ng·h/mL; MRT inf [1, 8]: 8.2 ± 5.2 h; MRT last [1, 8]: 4.9 ± 1.6 h; concentration at 16.6 h ([2]; human, plasma, intravenous, 0.15 mg/kg/h, from regression equation Y = − 4.506 × X + 105.5 at 16.6 h, awakened patients n = 7, read-out: Estimated concentration of midazolam at the subgroup awakening time): 30.7 ng/mL; Mean of the estimated MDZ concentration at awakening time ([2]; individual regression analysis, four out of seven awakened patients): 16.8 ng/mL; Awakening time in the subgroup after discontinuation of the midazolam infusion ([2]; subgroup of awakened patients n = 7): 16.6 h; Awaken time after discontinuation of midazolam intravenous infusion ([2]; subject #1): 9.6 h; Estimated midazolam concentration at awaken time ([2]; subject #1): 32.3 ng/mL; Awaken time after discontinuation of midazolam intravenous infusion ([2]; subject #2): 10.4 h; Estimated midazolam concentration at awaken time ([2]; subject #2): 20.8 ng/mL; Awaken time after discontinuation of midazolam intravenous infusion ([2]; subject #3): 9.6 h; Estimated midazolam concentration at awaken time ([2]; subject #3): 2.2 ng/mL; Awaken time after discontinuation of midazolam intravenous infusion ([2]; subject #4): 7.1 h; Estimated midazolam concentration at awaken time ([2]; subject #4): 11.9 ng/mL; Proportion in total concentration [3]: 21.2–38.4%
3 | dihydroxymidazolam [Di-OH-MDZ] | 21.0 ± 19.8 | 6.4 ± 2.5 | 14.5 ± 13.7 | 38.2 ± 49.8 h*ppm | 56.2 ± 52.1 h*ppm | –
4 | Cc1ncc2n1-c1ccc(Cl)cc1C(c1ccccc1F)=NC2O (stereo not drawn) [4-OH-MDZ, 4-hydroxymidazolam] | – | – | – | 172.5 ± 268.0 h*ppm | 204.7 ± 294.8 h*ppm | MRT inf [1, 8]: 10 ± 4.8 h; MRT last [1, 8]: 5.6 ± 1.5 h; half-life ([1]; human, plasma, intravenous, after discontinuation of MDZ infusion, mean ± SD, read-out: t1/2 (elimination half-life) (converted)): 7.3 ± 3.8 h; Potency for sedation [4]: 0–2%
5 | O=C(O)[C@H]1O[C@@H](OCc2ncc3n2-c2ccc(Cl)cc2C(c2ccccc2F)=NC3)[C@H](O)[C@@H](O)[C@@H]1O [1-OH-MDZ-Glu, 1-hydroxymidazolam glucuronide] | 21.8 ± 26.8 | 6.8 ± 2.4 | 15.4 ± 19.9 | 9193.0 ± 13,958.4 h*ppm | 14,027.8 ± 15,486.2 h*ppm | Pharmacological potency (sedation) [4]: < 6%; Potency for sedation [4]: 6–10%
6 | midazolam glucuronide [MDZ-Glu] | 16.2 ± 24.1 | 5.8 ± 1.9 | – | – | – | –
7 | OCc1ncc2n1-c1ccc(Cl)cc1C(c1ccccc1F)=NC2 [1-OH-MDZ, 1-hydroxymidazolam] | 10.5 ± 5.2 | 6.0 ± 2.3 | 8.1 ± 4.9 | 1117.2 ± 1643.5 h*ppm | 1419.1 ± 1845.5 h*ppm | Proportion in total concentration [3]: 3.3–4.2%; Potency for sedation effect [4]: 60–63%
8 | di-hydroxymidazolam glucuronide [Di-OH-MDZ-Glu] | 19.2 ± 13.0 | 6.4 ± 2.1 | 14.3 ± 9.6 | 187.4 ± 272.0 h*ppm | 200.2 ± 307.1 h*ppm | –
